# Laboratory results: patent US4450269A, “Mono-5-substituted-3-chloro-4H-1,2,6-thiadiazin-4-one antifungal agents” (FMC Corporation, priority 1980, dated 1984)
# Where a name gives a salt, the structure may show the parent alone.
# Tests used:
# Cladosporium cucumerinum = experiment: Mycelial growth test; format: cell-based; conditions: CC; for Percent Fungus Growth Inhibition: 72 hours; for inhibition at 5 ppm / inhibition at 10 ppm / inhibition at 40 ppm / inhibition at 20 ppm: Cladosporium cucumerinum, read-out: Percent Fungus Growth Inhibition; for inhibition at 5 ppm / inhibition at 10 ppm / inhibition at 40 ppm: 72 h; for inhibition at 20 ppm: CC20, 72 h
# Excerpt: |CC = Cladosporium cucumerinum
# Erysiphe polygoni = experiment: whole plant or invertebrate; conditions: foliar, 24 h, read-out: Percent Disease Control, curative, bean powdery mildew
Compound,Percent Fungus Growth Inhibition (Cladosporium cucumerinum; 5 ppm) [%],Percent Fungus Growth Inhibition (Cladosporium cucumerinum; 10 ppm) [%],Percent Fungus Growth Inhibition (Cladosporium cucumerinum; 20 ppm) [%],Percent Fungus Growth Inhibition (Cladosporium cucumerinum; 40 ppm) [%],inhibition at 5 ppm (Cladosporium cucumerinum; 5 ppm) [%],inhibition at 10 ppm (Cladosporium cucumerinum; 10 ppm) [%],inhibition at 40 ppm (Cladosporium cucumerinum; 40 ppm) [%],inhibition at 20 ppm (Cladosporium cucumerinum; 20 ppm) [%],pest or weed control at 150 ppm (Erysiphe polygoni) [%],"Percent Fungus Growth Inhibition (Cladosporium cucumerinum; 5 ppm, hydrochloride) [%]","Percent Fungus Growth Inhibition (Cladosporium cucumerinum; 10 ppm, hydrochloride) [%]","Percent Fungus Growth Inhibition (Cladosporium cucumerinum; 40 ppm, hydrochloride) [%]"
"3-chloro-5-(bromophenoxy)-4H-1,2,6-thiadiazin-4-one [Compound 33]",11,28,61,83,,,,,,,,
"3-chloro-5-[methylaminocarbonyloxy)phenoxyl]-4H-1,2,6-thiadiazin-4-one [Compound 36]",0,8,38,62,,,,,,,,
"O=c1c(Cl)nsnc1Oc1ccccc1 [Compound 2, 3-chloro-5-phenoxy-4H--1,2,6-thiadiazin-4-one]",,,,,46,58,100,100,100,,,
"Cc1ccc(Oc2nsnc(Cl)c2=O)cc1 [Compound 3, 3-chloro-5-(4-methylphenoxy)-4H--1,2,6-thiadiazin-4-one]",,,,,58,67,100,100,0,,,
"CC(C)(C)c1ccc(Oc2nsnc(Cl)c2=O)cc1 [Compound 4, 3-chloro-5-(4-tert-butylphnoxy)-4H--1,2,6-thiadiazin-4-one]",,,,,0,9,45,27,100,,,
"COc1ccc(Oc2nsnc(Cl)c2=O)cc1 [Compound 5, 3-chloro-5-(4-methoxyphenoxy)4H--1,2,6-thiadiazin-4-one]",,,,,50,75,100,100,0,,,
"CCCCOc1ccc(Oc2nsnc(Cl)c2=O)cc1 [Compound 6, 3-chloro-5-(4-n-butoxyphenoxy)-4H--1,2,6-thiadiazin-4-one]",,,,,0,0,45,0,100,,,
"CCOC(=O)c1ccc(Oc2nsnc(Cl)c2=O)cc1 [Compound 7, 3-chloro-5-(4-ethoxycarbonylphenoxy)-4H--1,2,6-thiadiazin-4-one]",,,,,9,36,100,100,0,,,
"CC(=O)Nc1ccc(Oc2nsnc(Cl)c2=O)cc1 [Compound 8, 5-(4-acetylaminophenoxy)-3-chloro-4H--1,2,6-thiadiazin-4-one]",,,,,50,58,100,67,0,,,
"O=c1c(Cl)nsnc1Oc1ccc([N+](=O)[O-])cc1 [Compound 9, 3-chloro-5-(4-nitrophenoxy)-4H--1,2,6-thiadiazin-4-one]",,,,,54,75,100,92,0,,,
"N#Cc1ccc(Oc2nsnc(Cl)c2=O)cc1 [Compound 10, 3-chloro-5-(4-cyanophenoxy)-4H--1,2,6-thiadiazin-4-one]",,,,,9,45,100,100,0,,,
"O=c1c(Cl)nsnc1Oc1ccc(F)cc1 [Compound 11, 3-chloro-5-(4-fluorophenoxy)-4H--1,2,6-thiadiazin-4-one]",,,,,27,64,100,100,100,,,
"O=c1c(Cl)nsnc1Oc1ccc(Cl)cc1 [Compound 12, 3-chloro-5-(4-chlorophenoxy)-4H--1,2,6-thiadiazin-4-one]",,,,,63,58,100,71,50,,,
"O=c1c(Cl)nsnc1Oc1cccc(Cl)c1 [Compound 13, 3-chloro-5-(3-chlorophenoxy)-4H--1,2,6-thiadiazin-4-one]",,,,,58,67,100,100,100,,,
"O=c1c(Cl)nsnc1Oc1ccccc1Cl [Compound 14, 3-chloro-5-(2-chlorophenoxy)-4H--1,2,6-thiadiazin-4-one]",,,,,67,50,100,100,50,,,
"O=c1c(Cl)nsnc1Oc1ccc(Br)cc1 [Compound 15, 3-chloro-5-(4-bromophenoxy)-4H--1,2,6-thiadiazin-4-one]",,,,,9,55,100,82,100,,,
"O=c1c(Cl)nsnc1Oc1ccc(Cl)c(Cl)c1 [Compound 16, 3-chloro-5-(3,4-dichlorophenoxy)-4H--1,2,6-thiadiazin-4-one]",,,,,58,54,75,67,0,,,
"O=c1c(Cl)nsnc1Oc1ccc(Cl)cc1Cl [Compound 17, 3-chloro-5-(2,4-dichlorophenoxy)-4H--1,2,6-thiadiazin-4-one]",,,,,100,100,100,100,100,,,
"O=c1c(Cl)nsnc1Oc1c(Cl)cccc1Cl [Compound 18, 3-chloro-5-(2,6-dichlorophenoxy)-4H--1,2,6-thiadiazin-4-one]",,,,,83,100,100,100,100,,,
"O=c1c(Cl)nsnc1Oc1cccc(Cl)c1Cl [Compound 19, 3-chloro-5-(2,3-dichlorophenoxy)-4H--1,2,6-thiadiazin-4-one]",,,,,100,100,100,100,,,,
"O=c1c(Cl)nsnc1Oc1cc(Cl)cc(Cl)c1 [Compound 20, 3-chloro-5-(3,5-dichlorophenoxy)-4H--1,2,6-thiadiazin-4-one]",,,,,100,100,100,100,100,,,
"Cc1cccc(Oc2nsnc(Cl)c2=O)c1 [Compound 21, 3-chloro-5-(3-methylphenoxy)-4H--1,2,6-thiadiazin-4-one]",,,,,38,38,85,69,100,,,
"Cc1ccccc1Oc1nsnc(Cl)c1=O [Compound 22, 3-chloro-5-(2-methylphenoxy)-4H--1,2,6-thiadiazin-4-one]",,,,,31,46,92,69,100,,,
"Cc1ccc(Oc2nsnc(Cl)c2=O)c(C)c1 [Compound 23, 3-chloro-5-(2,4-dimethylphenoxy)-4H--1,2,6-thiadiazin-4-one]",,,,,27,38,100,81,0,,,
"Cc1cccc(C)c1Oc1nsnc(Cl)c1=O [Compound 24, 3-chloro-5-(2,6-dimethylphenoxy)-4H--1,2,6-thiadiazin-4-one]",,,,,46,65,100,100,100,,,
"Cc1cc(C)cc(Oc2nsnc(Cl)c2=O)c1 [Compound 25, 3-chloro-5-(3,5-dimethylphenoxy)-4H--1,2,6-thiadiazin-4-one]",,,,,27,50,100,77,100,,,
"Nc1ccc(Oc2nsnc(Cl)c2=O)cc1 [Compound 27, 5-(4-aminophenoxy)-3-chloro-4H--1,2,6-thiadiazine-4-one hydrochloride]",,,,,,,,,,31,40,54
"Cc1cc(Oc2nsnc(Cl)c2=O)cc(C)c1Cl [Compound 59, 3-chloro-5-[(4-chloro-3,5-dimethyl)phenoxy]-4H--1,2,6-thiadiazin-4-one]",,,,,28,42,61,47,,,,
"Cc1cc(Oc2nsnc(Cl)c2=O)cc(C)c1Br [Compound 60, 3-[(4-bromo-3,5-dimethyl)-phenoxy]-5-chloro-4H--1,2,6-thiadiazin-4-one]",,,,,33,36,47,44,,,,
